For 1 compound, remaining activity results are on record in paper PMC4979471 (Cell Death Discovery, 2015).

Molecules are shown by their SMILES. Like-named read-outs stand apart in the source and are kept apart here.

Holding throughout (assay): Kinase selectivity, P33-radiolabeled assay
Format in all cases: biochemical
Holding throughout (details): 10 μM ATP

One test concerns the target T1, MLCK2/MYLK2 (Homo sapiens, UniProt Q9H1R3).
T1 construct: purchased Reaction Biology Corp
The gist of the method: (§1)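 Duplicate single-concentration testing used 10 μM compound. The ATP concentration was also 10 μM.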

The next test addresses T2, DMPK2 (Homo sapiens, UniProt Q6DT37).
T2 construct: purchased Reaction Biology Corp
Put shortly: as §1

A further test addresses T3, PKCepsilon (Homo sapiens, UniProt Q02156).
T3 construct: purchased Reaction Biology Corp
T3 sequence (Q02156 1-737): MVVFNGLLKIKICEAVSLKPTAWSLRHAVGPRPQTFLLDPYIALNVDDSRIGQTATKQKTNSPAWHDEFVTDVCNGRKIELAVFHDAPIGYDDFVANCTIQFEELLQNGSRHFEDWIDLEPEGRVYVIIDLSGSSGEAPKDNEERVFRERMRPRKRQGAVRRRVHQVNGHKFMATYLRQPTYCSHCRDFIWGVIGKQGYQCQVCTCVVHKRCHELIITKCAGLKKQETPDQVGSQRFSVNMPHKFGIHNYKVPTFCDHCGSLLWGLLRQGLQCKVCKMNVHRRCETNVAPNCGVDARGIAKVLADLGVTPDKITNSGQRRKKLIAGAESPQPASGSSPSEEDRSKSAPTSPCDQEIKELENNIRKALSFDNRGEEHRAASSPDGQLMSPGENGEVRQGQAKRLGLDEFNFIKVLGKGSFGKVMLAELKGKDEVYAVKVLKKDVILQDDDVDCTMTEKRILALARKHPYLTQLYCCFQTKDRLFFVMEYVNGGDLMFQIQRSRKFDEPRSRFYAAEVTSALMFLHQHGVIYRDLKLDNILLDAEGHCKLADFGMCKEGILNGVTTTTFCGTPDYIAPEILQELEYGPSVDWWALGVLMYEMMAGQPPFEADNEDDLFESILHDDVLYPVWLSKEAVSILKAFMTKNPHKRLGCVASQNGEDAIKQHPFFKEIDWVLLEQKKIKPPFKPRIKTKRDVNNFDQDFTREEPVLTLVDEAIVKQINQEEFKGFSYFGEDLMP
Put shortly:
as §1

A further test has as its target T4, ERBB2/HER2 (Homo sapiens, UniProt P04626).
T4 construct: purchased Reaction Biology Corp
Put shortly: as §1

Another test concerns the target T5, SIK2 (Homo sapiens, UniProt Q9H0K1).
T5 construct: purchased Reaction Biology Corp
The gist of the method:
as §1

A further test deals with T6, CDK6/cyclin D1 (Homo sapiens, UniProt Q00534).
T6 construct: purchased Reaction Biology Corp
Put shortly: as §1

A further test addresses T7, NEK9 (Homo sapiens, UniProt Q8TD19).
T7 construct: purchased Reaction Biology Corp
T7 sequence (Q8TD19 1-979): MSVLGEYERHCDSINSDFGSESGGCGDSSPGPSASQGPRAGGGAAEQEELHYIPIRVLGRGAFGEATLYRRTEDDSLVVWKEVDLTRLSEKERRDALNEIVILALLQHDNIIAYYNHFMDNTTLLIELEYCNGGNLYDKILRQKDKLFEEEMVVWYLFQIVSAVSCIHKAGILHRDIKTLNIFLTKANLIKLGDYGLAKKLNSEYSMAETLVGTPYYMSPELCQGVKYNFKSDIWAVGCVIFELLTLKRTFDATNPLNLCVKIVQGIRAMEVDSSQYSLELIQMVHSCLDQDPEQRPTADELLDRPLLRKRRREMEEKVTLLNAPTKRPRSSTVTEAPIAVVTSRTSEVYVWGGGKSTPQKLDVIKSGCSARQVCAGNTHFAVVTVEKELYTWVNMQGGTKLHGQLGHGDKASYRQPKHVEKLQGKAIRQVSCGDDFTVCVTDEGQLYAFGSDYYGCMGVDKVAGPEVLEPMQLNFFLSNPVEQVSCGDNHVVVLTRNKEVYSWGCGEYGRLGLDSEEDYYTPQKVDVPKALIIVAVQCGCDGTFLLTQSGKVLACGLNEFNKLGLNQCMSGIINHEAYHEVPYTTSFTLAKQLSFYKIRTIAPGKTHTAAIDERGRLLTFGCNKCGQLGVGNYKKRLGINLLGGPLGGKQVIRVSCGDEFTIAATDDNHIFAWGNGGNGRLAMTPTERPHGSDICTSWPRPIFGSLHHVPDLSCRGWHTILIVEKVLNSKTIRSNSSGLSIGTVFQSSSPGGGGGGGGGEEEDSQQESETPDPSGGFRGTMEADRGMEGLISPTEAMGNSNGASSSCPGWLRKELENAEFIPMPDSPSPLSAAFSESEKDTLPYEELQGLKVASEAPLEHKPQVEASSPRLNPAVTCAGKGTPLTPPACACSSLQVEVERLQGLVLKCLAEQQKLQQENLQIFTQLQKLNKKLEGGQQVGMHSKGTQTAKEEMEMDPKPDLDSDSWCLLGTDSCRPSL
Put shortly: as §1

The target in another test is T8, OSR1/OXSR1 (Homo sapiens, UniProt O95747).
T8 construct: purchased Reaction Biology Corp
Put shortly:
as §1

The mark [1] stands for this setting: read-out: % Enzyme Activity (relative to DMSO controls) AVG.
The mark [2] stands for this setting: read-out: % Enzyme Activity (relative to DMSO controls) Data 1.
The mark [3] stands for this setting: read-out: % Enzyme Activity (relative to DMSO controls) Data 2.

T2 sequence (Q6DT37 whole entry): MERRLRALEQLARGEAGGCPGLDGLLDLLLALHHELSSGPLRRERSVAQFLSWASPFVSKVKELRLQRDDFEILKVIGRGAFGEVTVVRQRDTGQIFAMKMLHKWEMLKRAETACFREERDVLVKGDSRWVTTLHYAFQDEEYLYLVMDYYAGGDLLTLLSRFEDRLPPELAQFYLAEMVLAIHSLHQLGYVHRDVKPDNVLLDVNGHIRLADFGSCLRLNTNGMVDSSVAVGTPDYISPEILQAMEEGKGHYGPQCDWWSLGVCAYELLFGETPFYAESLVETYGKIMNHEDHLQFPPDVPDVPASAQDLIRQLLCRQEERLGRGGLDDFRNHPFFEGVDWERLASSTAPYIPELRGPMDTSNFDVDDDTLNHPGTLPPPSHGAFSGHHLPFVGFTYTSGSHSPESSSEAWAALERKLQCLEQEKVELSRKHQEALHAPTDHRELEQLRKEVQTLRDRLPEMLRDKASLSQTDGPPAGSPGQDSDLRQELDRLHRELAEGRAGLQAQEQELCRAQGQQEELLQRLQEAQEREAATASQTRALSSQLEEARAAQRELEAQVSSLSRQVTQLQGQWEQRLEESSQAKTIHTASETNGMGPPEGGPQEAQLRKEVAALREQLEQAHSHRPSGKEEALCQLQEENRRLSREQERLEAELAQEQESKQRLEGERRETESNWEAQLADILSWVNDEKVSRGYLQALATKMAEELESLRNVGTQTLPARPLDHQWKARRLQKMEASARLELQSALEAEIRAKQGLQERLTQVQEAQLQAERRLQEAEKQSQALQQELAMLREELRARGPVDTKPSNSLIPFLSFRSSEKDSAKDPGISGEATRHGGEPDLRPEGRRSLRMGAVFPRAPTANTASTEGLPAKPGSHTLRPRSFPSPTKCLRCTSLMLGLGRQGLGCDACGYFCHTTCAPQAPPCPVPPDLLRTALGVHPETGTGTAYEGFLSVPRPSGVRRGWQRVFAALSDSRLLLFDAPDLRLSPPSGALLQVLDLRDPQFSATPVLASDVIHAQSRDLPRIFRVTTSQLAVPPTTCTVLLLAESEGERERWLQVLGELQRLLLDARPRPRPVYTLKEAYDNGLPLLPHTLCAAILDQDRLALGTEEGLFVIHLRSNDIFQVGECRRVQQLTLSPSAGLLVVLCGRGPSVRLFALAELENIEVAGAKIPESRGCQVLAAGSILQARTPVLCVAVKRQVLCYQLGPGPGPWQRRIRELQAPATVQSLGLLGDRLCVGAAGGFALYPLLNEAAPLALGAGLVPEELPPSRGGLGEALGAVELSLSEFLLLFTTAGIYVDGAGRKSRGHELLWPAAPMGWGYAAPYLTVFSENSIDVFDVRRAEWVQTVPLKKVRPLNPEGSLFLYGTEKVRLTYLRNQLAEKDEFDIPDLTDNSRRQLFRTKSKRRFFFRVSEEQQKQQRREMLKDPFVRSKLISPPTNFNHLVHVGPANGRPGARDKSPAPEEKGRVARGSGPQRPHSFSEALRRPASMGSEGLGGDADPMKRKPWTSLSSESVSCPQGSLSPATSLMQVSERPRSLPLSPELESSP
T8 sequence (O95747 whole entry): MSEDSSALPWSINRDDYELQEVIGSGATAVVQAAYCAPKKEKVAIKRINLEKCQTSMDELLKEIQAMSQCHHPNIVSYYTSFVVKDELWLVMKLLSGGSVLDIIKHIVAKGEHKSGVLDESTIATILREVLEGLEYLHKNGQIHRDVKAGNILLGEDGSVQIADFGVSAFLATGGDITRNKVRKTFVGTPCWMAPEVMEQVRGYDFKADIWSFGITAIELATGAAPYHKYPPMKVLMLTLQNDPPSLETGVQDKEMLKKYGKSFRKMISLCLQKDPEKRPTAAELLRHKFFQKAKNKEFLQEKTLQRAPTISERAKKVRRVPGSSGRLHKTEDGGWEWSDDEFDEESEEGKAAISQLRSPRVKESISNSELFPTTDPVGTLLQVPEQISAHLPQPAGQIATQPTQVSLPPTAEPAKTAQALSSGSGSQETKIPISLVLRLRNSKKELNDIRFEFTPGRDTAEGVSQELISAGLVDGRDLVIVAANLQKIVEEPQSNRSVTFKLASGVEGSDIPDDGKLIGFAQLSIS
T6 sequence (Q00534 whole entry): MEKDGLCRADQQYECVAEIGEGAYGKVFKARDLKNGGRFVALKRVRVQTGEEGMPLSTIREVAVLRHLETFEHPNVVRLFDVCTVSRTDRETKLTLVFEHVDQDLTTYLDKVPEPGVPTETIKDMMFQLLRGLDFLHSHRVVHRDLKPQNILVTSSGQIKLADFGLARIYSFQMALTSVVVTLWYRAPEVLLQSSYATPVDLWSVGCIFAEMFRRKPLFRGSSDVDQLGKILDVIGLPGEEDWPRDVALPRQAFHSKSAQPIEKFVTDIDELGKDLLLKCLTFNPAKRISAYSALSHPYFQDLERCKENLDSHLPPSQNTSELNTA
T6 sequence (P24385 whole entry partner): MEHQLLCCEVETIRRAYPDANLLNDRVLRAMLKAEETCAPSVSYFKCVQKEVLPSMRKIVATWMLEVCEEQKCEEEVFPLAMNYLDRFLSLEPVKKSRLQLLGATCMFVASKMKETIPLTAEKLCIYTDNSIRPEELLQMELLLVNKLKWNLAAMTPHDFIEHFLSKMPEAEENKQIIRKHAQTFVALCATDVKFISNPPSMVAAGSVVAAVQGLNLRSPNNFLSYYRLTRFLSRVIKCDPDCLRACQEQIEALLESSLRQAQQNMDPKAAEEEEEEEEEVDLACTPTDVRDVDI
T5 sequence (Q9H0K1 whole entry): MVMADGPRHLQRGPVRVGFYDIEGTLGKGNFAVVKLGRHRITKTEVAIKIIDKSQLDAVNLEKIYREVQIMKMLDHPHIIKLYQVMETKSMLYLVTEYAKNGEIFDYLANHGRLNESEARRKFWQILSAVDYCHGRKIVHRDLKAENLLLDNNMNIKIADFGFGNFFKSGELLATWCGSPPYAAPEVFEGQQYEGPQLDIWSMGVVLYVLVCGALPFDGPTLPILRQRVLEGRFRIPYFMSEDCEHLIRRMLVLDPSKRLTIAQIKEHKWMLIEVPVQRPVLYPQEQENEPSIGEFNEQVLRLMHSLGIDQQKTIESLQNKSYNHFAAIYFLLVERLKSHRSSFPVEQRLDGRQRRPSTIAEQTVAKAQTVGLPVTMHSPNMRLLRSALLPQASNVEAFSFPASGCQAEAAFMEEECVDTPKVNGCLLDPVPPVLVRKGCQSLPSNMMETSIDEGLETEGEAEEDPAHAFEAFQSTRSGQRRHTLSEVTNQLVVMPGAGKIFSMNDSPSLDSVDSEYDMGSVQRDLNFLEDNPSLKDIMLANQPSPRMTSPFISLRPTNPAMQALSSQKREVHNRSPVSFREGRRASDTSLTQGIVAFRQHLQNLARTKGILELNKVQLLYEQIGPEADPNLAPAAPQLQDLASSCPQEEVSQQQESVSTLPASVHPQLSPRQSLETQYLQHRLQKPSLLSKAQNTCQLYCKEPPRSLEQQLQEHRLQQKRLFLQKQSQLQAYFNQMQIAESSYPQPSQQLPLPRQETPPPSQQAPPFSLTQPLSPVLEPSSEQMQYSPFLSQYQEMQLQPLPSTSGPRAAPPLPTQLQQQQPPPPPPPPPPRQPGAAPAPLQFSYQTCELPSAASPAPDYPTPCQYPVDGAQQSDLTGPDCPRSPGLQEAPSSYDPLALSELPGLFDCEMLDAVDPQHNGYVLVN
T4 sequence (P04626 23-1255): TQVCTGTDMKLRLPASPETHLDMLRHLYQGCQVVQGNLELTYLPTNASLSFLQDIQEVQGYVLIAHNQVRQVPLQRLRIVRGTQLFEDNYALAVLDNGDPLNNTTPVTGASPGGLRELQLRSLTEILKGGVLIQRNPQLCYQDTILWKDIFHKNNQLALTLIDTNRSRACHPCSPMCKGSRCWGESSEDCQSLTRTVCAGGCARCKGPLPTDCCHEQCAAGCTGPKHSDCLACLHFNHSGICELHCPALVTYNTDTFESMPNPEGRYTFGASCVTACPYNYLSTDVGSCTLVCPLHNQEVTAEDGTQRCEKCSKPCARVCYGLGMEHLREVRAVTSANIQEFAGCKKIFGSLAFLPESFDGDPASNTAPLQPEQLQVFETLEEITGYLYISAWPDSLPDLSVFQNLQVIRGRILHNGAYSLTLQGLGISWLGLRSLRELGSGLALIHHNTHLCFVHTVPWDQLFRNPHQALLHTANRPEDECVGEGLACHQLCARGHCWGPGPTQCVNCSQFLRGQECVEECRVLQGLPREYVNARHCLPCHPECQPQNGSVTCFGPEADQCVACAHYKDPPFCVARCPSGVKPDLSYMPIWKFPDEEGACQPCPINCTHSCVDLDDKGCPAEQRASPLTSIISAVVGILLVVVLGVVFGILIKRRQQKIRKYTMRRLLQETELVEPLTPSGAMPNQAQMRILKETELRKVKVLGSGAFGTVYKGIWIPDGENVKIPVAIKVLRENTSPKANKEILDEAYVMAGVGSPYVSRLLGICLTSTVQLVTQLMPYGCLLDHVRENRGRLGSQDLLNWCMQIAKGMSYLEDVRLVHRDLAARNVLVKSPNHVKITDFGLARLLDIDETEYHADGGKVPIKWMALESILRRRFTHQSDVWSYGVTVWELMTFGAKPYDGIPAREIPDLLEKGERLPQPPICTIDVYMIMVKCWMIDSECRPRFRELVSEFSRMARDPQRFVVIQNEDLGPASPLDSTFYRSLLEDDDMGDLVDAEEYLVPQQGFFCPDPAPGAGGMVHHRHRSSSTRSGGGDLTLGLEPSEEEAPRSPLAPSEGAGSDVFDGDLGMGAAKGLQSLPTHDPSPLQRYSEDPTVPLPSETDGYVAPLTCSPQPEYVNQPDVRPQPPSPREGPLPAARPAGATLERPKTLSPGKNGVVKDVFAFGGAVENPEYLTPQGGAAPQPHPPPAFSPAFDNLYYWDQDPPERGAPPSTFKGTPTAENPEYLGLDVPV

Turning to `CC(C)(C)C(=O)N1N=CC[C@H]1c1ccccc1` [GSK′963], the remaining activity at 10 µM was determined as 104% on MLCK2/MYLK2 (setting [1]); 106% on MLCK2/MYLK2 (setting [2]); 102% at MLCK2/MYLK2 (setting [3]); 139% on DMPK2 (setting [1]); 140% on DMPK2 (setting [2]); 139% at DMPK2 (setting [3]). Further, the remaining activity at 10 µM at PKCepsilon (setting [1]) was determined as 105%; on PKCepsilon (setting [2]), 103%; at PKCepsilon (setting [3]), 106%; at ERBB2/HER2 (setting [1]), 105%; at ERBB2/HER2 (setting [2]), 102%; at ERBB2/HER2 (setting [3]), 107%. Besides, the remaining activity at 10 µM on SIK2 (setting [1]) turned out to be 96.7%; at SIK2 (setting [2]) it was 94.8%; on SIK2 (setting [3]), 98.6%; at CDK6/cyclin D1 (setting [1]), 93.7%; at CDK6/cyclin D1 (setting [2]) it was 94.2%; at CDK6/cyclin D1 (setting [3]) it was 93.2%. The remaining activity at 10 µM amounted to 92.8% on NEK9 (setting [1]); 92.1% at NEK9 (setting [2]); 93.5% on NEK9 (setting [3]); 120% at OSR1/OXSR1 (setting [1]); 127% at OSR1/OXSR1 (setting [2]); 112% at OSR1/OXSR1 (setting [3]).
